# Assays:
# [1] = literature / general knowledge; cited from earlier work
# [2] = system: nutritionally dystrophic rabbit; conditions: Farley et al. 1968; intravenous administration; cited from earlier work
# [3] = system: periodontal disease; conditions: Matsummura et al. 1973; cited from earlier work
# [4] = system: succinoxidase system of beef heart mitochondria; experiment: CoQ activity: restoring succinoxidase activity of pentane-extracted beef heart mitochondria (manometric); format: biochemical; set-up: key to CoQ10 Act. Index: activity index relative to CoQ10 standard; conditions: for Activation at 400 nMoles %: 400 nmoles of analog, relative to the response to 400 nmoles CoQ10; for Maximum Activation: 400 nm of analog per flask, percent of the response to CoQ4; for CoQ10 Act. Index: calculated from relative effectiveness, activity in terms of that of CoQ10; for Estimated nMoles Required for 50% Activation: level required to reinstate approximately 50% of maximum succinoxidase activity, 0.65-0.85 mg PEBHM; for Relative Effectiveness: molar amounts of analog and CoQ4 required to restore the same level of succinoxidase to PEBHM, relative to CoQ4; for effectiveness / utilization in the succinoxidase mitochondrial system: interpretation of Table II
# Description: The CoQ activity of each analog was assessed by examining the ability of the analog to stimulate the succinoxidase activity of beef-heart mitochondria (BHM) from which the naturally occurring CoQ had been removed by pentane extraction. (Table I) Beef heart mitochondria were prepared by the method of Smith (Methods Enzymol., 10, 81 (1967). The pentane extraction was conducted as described by Szarkowska (Arch. Biochem. Biophys., 113, 519 (1966); PEBHM was frozen and used within 10 days of preparation, since pentane extraction decreases the stability of BHM. Succinoxidase activity was determined manometercally, using a Gilson differential respirometer (Iwamoto, Y., Hansen, I. L., Porter, T. H., and Folkers, K., Biochem. Biophys. Res. Comm., 58, 633 (1974), and is reported as […] of oxygen per minute per milligram of protein. A commercial soybean phospholipid preparation (Asolectin), dispersed by sonication (Fleischer, S. and Fleischer, B., Methods Enzymol., 10, 421 (1967), was used to provide phospholipid micelles, and test substances were added as solutions in ethanol. Within Table I are listed the CoQ activities of the analogs and selected reference compounds. The CoQ10 Activity Index is a measure of the effectiveness of the analogs, relative to the standard, in stimulating a submaximal response of succinoxidase activity. Specific activity of the succinoxidase system in response to stimulation by exogenous CoQ10 is given in footnote a of the Table. The quantity of analog to be added was chosen to provide a level of succinoxidase activity corresponding to the nearly linear portion of the activity: dose curve, in which succinoxidase activity stimulated is approximately proportional to the level of analog used. The second column lists the nanomolar quantity of analog required to provide a stimulation of about half of the maximum response. The relative response of the succinoxidase system to 400 nmol of each analog is listed in the third column of the Table. This level of analog is sufficient to insure significant excess over the stoichiometric amount, and maximum response to CoQ4 is obtained at one-tenth to one-twentieth of this dose level. The response to 400 nmol of CoQ10 is lower than is the response to other components listed. The very long side-chain of CoQ10, the natural coenzyme, may hinder the transport of exogenous CoQ10 to the active site.
# [5] = system: nutritionally deficient children who were anemic; conditions: Majaj and Folkers 1968; cited from earlier work
# [6] = biological target: complex III (Bos taurus, UniProt P00157+P13272); experiment: Reduction of cytochrome c by reduced CoQ and analogs catalyzed by complex III; format: biochemical; conditions: for response of complex III system to the reduced analog as substrate: after reduction and extraction
# Description: Reduction of cytochrome c was measured at 550-540 nm. The reaction mixtur
# contained in 1.0 ml: […] KP1, pH 7.5; 0.05 mM EDTA; 8 μM
# cytochrome c1; 10 μM reduced CoQ or analog and 2 μg complex
# III. When indicated, antimycin A was added to the assay medium at 1
# μg/ml. An extinction coefficient of 19 mM^-^1 was used for […]
# [7] = Solubility in water; format: physicochemical; conditions: in the site I assay system
# [8] = system: oxidative phosphorylation at site I (ETPH particles); experiment: Assay of CoQ and analogs for oxidative phosphorylation at site I with ETPH particles; format: biochemical; set-up: Δ NADH / Δ G6P: unit not given here; conditions: for biochemical effectiveness in the site I assay system: compared with CoQ1
# Description: Assays were performed with 200 μg of ETPH particles as described by
# Schatz and Racker (J. Biol. Chem., 241, 1429 (1966)). The concentration o
# the CoQ compounds was 0.12 mM. Rotenone was added at 2 μM
# [9] = Chemical stability; format: physicochemical; conditions: compared with CoQ1 and CoQ2
# [10] = human; cited from earlier work
# [11] = CoQ or analog 0.12 nM (footnote 0.12 mM)
SMILES,"therapeutic activity, saving the life of the dying dystrophic rabbit [2]",Activation at 400 nMoles % [4] [%],Maximum Activation [4] [%],CoQ10 Act. Index [4],Estimated nMoles Required for 50% Activation [4] [nmol],Relative Effectiveness [4] [%],hematological activity [5],response of complex III system to the reduced analog as substrate [6],solubility in water [7],biochemical effectiveness in the site I assay system [8],effectiveness / utilization in the succinoxidase mitochondrial system [4],other results
"COC1=C(OC)C(=O)C(C/C=C(\C)CC/C=C(\C)CCC=C(C)C)=C(C)C1=O [CoQ3, coenzyme Q3]",did not save the life of the dying dystrophic rabbit,–,–,–,–,–,–,–,–,–,–,chemical stability of isoprenoid quinones [1]: relative chemical instability
"COC1=C(OC)C(=O)C(C/C=C(\C)CCCC(C)CCCC(C)CCCC(C)C)=C(C)C1=O (stereo not shown) [H6 CoQ4, hexahydrocoenzyme Q4, reference compound]",–,121,95,2.2,19.4,10.3,showed hematological activity,–,–,–,–,treatment of periodontal disease [3]: enhanced treatment of periodontal disease
"CCCCCCCCCCCCCCCC1=C(C)C(=O)C(OC)=C(OC)C1=O [Pentadecyl, 2,3-Dimethoxy-5-methyl-6-pentadecyl-1,4-benzoquinone]",–,121,94,4.4,9.5,21,–,virtually unresponsive,lower solubility in water,not suitable or as effective,–,inhibition of complex III system [6]: no inhibition
"CCCCCC1=C(C)C(=O)C(OC)=C(OC)C1=O [Pentyl, 2,3-Dimethoxy-5-methyl-6-pentyl-1,4-benzoquinone]",–,110,86,1.2,35.1,5.7,–,excellent substrates,–,as biochemically effective as CoQ1,about as little effective as coenzyme Q10 itself,"nMoles Cytochrome c Reduced/min ([6]; 10 μM reduced CoQ or analog, 2 μg complex III, 8 μM cytochrome c): 14.6 nmol/min; Non-enzymatic Rate of Cytochrome c Reduction ([6]; 10 μM reduced CoQ or analog, blank without complex III): 0.2 nmol/min; % Inhibition by Antimycin A ([6]; antimycin A 1 μg/ml): 100%; P/NADH Ratio [8, 11]: 0.44; Δ G6P [8, 11]: 0.036; Δ NADH [8, 11]: 0.082; μmoles NADH /min/mg ([8]; CoQ or analog 0.12 nM (footnote 0.12 mM), 200 μg ETPH particles, no rotenone): 0.47 μmoles NADH /min/mg; μmoles NADH min/mg +Rotenone ([8]; CoQ or analog 0.12 nM (footnote 0.12 mM), rotenone 2 μM): 0.02 μmoles NADH min/mg; % Inhibition by Rotenone ([8]; rotenone 2 μM, CoQ or analog 0.12 nM (footnote 0.12 mM)): 95%; chemical stability ([9]; listed as 6-n-pentyl): superior to CoQ1 and CoQ2 in chemical stability; chemical stability ([9]; listed as PB): apparent greater stability"
"COC1=C(OC)C(=O)C(C/C=C(\C)CC/C=C(\C)CC/C=C(\C)CC/C=C(\C)CC/C=C(\C)CCC=C(C)C)=C(C)C1=O [CoQ6, reference compound]",–,–,–,–,–,–,–,–,somewhat more soluble,not adequate,–,–
"COC1=C(OC)C(=O)C(C/C=C(\C)CC/C=C(\C)CC/C=C(\C)CC/C=C(\C)CC/C=C(\C)CC/C=C(\C)CC/C=C(\C)CC/C=C(\C)CC/C=C(\C)CCC=C(C)C)=C(C)C1=O [CoQ10, coenzyme Q10, reference compound]",failed to elicit therapeutic activity,100,78,1.0,41.7,4.8,showed hematological activity,–,too insoluble,–,poorly utilized,oral absorption [10]: inefficient; Specific Activity of the enzyme system ([4]; 10 nmoles CoQ10/flask): 0.160 μatm O2 /mg protein min; Specific Activity of the enzyme system ([4]; 20 nmoles CoQ10/flask): 0.248 μatm O2 /mg protein min; Specific Activity of the enzyme system ([4]; 30 nmoles CoQ10/flask): 0.298 μatm O2 /mg protein min; Specific Activity of the enzyme system ([4]; 40 nmoles CoQ10/flask): 0.344 μatm O2 /mg protein min; Specific Activity of the enzyme system ([4]; 100 nmoles CoQ10/flask): 0.488 μatm O2 /mg protein min; Activation at 3.46 nMoles ([4]; 3.46 (nMoles) CoQ10): no activation

# From US3974187A, “Synthetic analogs having the activity of naturally occurring forms of coenzyme Q” (priority 1975, dated 1976)
